For assay [1], the target named is T1, recombinant human UBE2C (Homo sapiens, UniProt O00762).
T1 sequence (O00762 2-179): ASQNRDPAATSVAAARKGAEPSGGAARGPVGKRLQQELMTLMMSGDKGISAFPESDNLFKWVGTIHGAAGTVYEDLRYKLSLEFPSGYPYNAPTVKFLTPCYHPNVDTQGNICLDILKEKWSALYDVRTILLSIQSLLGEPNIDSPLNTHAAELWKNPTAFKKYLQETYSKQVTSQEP
The experiment in a line: surface plasmon resonance, […] Langmuir fit. It is filed as binding.

The target of assay [2] is T2, UBE2C (endogenous, HCC cells) (Homo sapiens, UniProt O00762).
T2 construct: endogenous protein in hepatocellular carcinoma cells, detected by Western blot (anti-UBE2C EPR-23165-31)
T2 sequence (O00762 2-179): T1 sequence (O00762 2-179)
The experiment in a line: cellular thermal shift assay, Western blot. It is filed as cell-based. As to conditions: 20 µM, 24 h.

The target of assay [3] is T1, recombinant human UBE2C. The experiment in a line: ubiquitylation kit, ubiquitin chain / E2-Ub formation, Western blot. It counts as biochemical. As to conditions: 37 °C, 4 h; source of E2 not told.
Assay [4] addresses T3, GFP-tagged UBE2C (pcDNA3.1-eGFP-UBE2C) (Homo sapiens, UniProt O00762).
T3 sequence (O00762 2-179): T1 sequence (O00762 2-179)
The experiment in a line: CETSA, heated at […] °C for […] min. It counts as cell-based. As to conditions: cells treated with Halorotetin B 24 h before purification.

In the case of `CC(=O)/C=C/C=C(/C)C#CC1=C(C)C[C@@H](O)CC1(C)C` [Halorotetin B], the Kd in assay [1] is 6.71 µM. Also, in assay [2], the “cellular thermal shift assay, Western blot” value is on record as “UBE2C exhibited significant thermal stabilization upon Halorotetin B treatment”. Also, in assay [3], the “ubiquitylation kit, ubiquitin chain / E2-Ub formation, Western blot” value is recorded as “Halorotetin B significantly suppressed the enzymatic activity of UBE2C protein”. Besides, the “CETSA, heated at 77 °C for 10 min” value in assay [4] is “The thermal stabilization of wide type UBE2C and Ser51‐mutant UBE2C”.
